Data on two molecules can be found in ChEMBL document CHEMBL4229401, “Synthesis and evaluation of a ring-constrained Hsp90 C-terminal inhibitor that exhibits neuroprotective activity” (Bioorg Med Chem Lett, 2018).

Calls of active or inactive are those of the source. No cut-off for these calls is given here.

For assay [1], the species on record is Rattus norvegicus. Put plainly: Inhibition of C-terminal Hsp90 in rat 50B11 cells assessed as increase in Hsp70 expression at 0.1 to 1 uM after 24 hrs by Western blot analysis. In kind it is cell-based.
The species entered for assay [2] is Rattus norvegicus. Put plainly: Neuroprotective activity against H2O2-induced mitochondrial dysfunction in rat 50B11 cells assessed as improvement in mitochondrial biogenesis by measuring increase in maximal respiratory capacity pretreated for 24 hrs followed by H2O2 challenge and measured after 2 hrs. In kind it is functional, cell-based.

For `CO[C@@H]1[C@@H](O)[C@@H](O)[C@H](Oc2ccc(CCNC(C)=O)c(-c3cccc(F)c3)c2)OC1(C)C`, the inhibition entry in the assay filed under Rattus norvegicus [1] was “Active”. Further, the Activity entry in the assay filed under Rattus norvegicus [2] is “Dose-dependent effect”.
In the case of `CO[C@@H]1[C@@H](O)[C@@H](O)[C@H](Oc2ccc(CCNC(C)=O)c3c4cccc(F)c4c(=O)n(C)c23)OC1(C)C`, in the assay filed under Rattus norvegicus [1], the inhibition entry is “Active”. Also, in the assay filed under Rattus norvegicus [2], the Activity result is “Dose-dependent effect”.
